Test results from PMC12305496, “Bilosomal Encapsulation of Binuclear Phosphino Ru(II)–Cu(II) Compounds Enhances Their Selectivity and Activity toward Lung and Prostate Cancers” (Journal of Medicinal Chemistry, 2025).

Tests used:
Assay type in all cases: cell-based, human
PANC-1 cells = test: MTT cytotoxicity assay, PANC-1
Protocol: (§4) Primary screening of the antiproliferative activity of the heteronuclear Ru­(II)–Cu­(II) complexes was performed by the commonly used MTT assay on four human cancer cell lines: MCF-7 (breast), A549 (lung adenocarcinoma), DU145 (prostate), and PANC-1 (pancreatic). In addition, normal human embryonic kidney (HEK293T) and human keratinocyte (HaCaT) cell lines were used as controls to assess the toxicity of these complexes. The IC50 values (the concentration that causes 50% inhibition of cell proliferation) examined for compounds are compared to those obtained for clinically used cisplatin (CDDP) under the same experimental conditions.
(§5) The MCF7 cell line (human breast adenocarcinoma; morphology: epithelial-like, ATCC: HTB-22), A549 cell line (human lung adenocarcinoma, morphology: epithelial, ATCC: CCL-185), PANC-1 (human pancreatic/duct carcinoma, morphology: epithelial, ATCC: CRL-1469), and HaCaT (human keratinocyte, ATCC PCS-200-011) were cultured in DMEM (Corning), supplemented with 10% fetal bovine serum (FBS) and with 1% streptomycin/penicillin. The DU145 cell line (human prostate carcinoma) and HEK293T and HEK293 cell line (human embryonic kidney) were cultured in minimum essential medium (MEM, Corning) with 10% FBS. Cultures were incubated at 37 °C under a humidified atmosphere containing 5% CO2. Cells were passaged using a solution containing 0.05% trypsin and 0.5 mM EDTA. All media and other ingredients were purchased from ALAB­(Poland) or Thermo Fisher Scientific (USA).
(§6) Since most of the studied compounds are insoluble in aqueous media, they needed to be predissolved in DMSO for biological evaluation. DMSO was used in cell cultures at a concentration below 0.1% (v/v) to minimize its cytotoxicity and changes in gene expression. Cytotoxicity of the studied compounds was assessed using an MTT assay performed according to the protocols described previously. […] After that time, solutions of compounds were washed out, cells were then washed three times with PBS (1X), and a fresh medium was applied. Each compound concentration was tested in five replicates and repeated at least three times. Determined values of IC50 (concentration of a drug required to inhibit the growth of 50% of the cells) are given as mean ± SD. […] IC50 values were determined, after 72 h, from the plots of cell viability in the presence of various concentrations of each compound by matching the dose–response curves.

HEK293T cells = test: MTT cytotoxicity assay, HEK293T
Protocol: as §4, §5, §6

A549 cells [1] = test: Cell cycle analysis by flow cytometry; details: A549, 5 μM, 24 h
Protocol: Before treatment, cells were synchronized, and the compounds were applied at various concentrations.
The A549 and DU145 cells (3 × 10^5/well) were seeded in 12-well plates and treated with various concentrations of the examined complexes and CDDP for 24 h. Synchronization of A549 and DU145 cell cultures was performed by serum starvation. Serum starvation is widely used for synchronizing donor cells by arresting them in the G 0/G 1 phase of the cell cycle. Cell cultures were seeded and incubated in growth medium with 20% FBS overnight to synchronize the cell cultures. Then, the cultures were rinsed with PBS (1×) and changed to a serum-free medium. After serum starvation for 18 h, the cells were passaged and released into the cell cycle by the addition of the serum. Then cells were treated with the examined compounds and CDDP for 24 h. For FACS analysis, cell samples were harvested with trypsinization and stained with propidium iodide (20 μg/mL). Cell cycle phase distributions were analyzed by flow cytometry (BD Bioscience). Experiments were reaped at least three times.

MCF7 cells = test: MTT cytotoxicity assay, MCF7
From the text: The IC50 values (the concentration that causes 50% inhibition of cell proliferation) examined for compounds are compared to those obtained for clinically used cisplatin (CDDP) under the same experimental conditions.
The MCF7 cell line (human breast adenocarcinoma; morphology: epithelial-like, ATCC: HTB-22), A549 cell line (human lung adenocarcinoma, morphology: epithelial, ATCC: CCL-185), PANC-1 (human pancreatic/duct carcinoma, morphology: epithelial, ATCC: CRL-1469), and HaCaT (human keratinocyte, ATCC PCS-200-011) were cultured in DMEM (Corning), supplemented with 10% fetal bovine serum (FBS) and with 1% streptomycin/penicillin. […] Cultures were incubated at 37 °C under a humidified atmosphere containing 5% CO2. Cells were passaged using a solution containing 0.05% trypsin and 0.5 mM EDTA.
as §6

DU145 cells [2] = test: MTT cytotoxicity assay, DU145
Protocol: as §4, §5, §6

A549 cells [3] = test: MTT cytotoxicity assay, A549
Protocol: as §4, §5, §6

HaCaT cells = test: MTT cytotoxicity assay, HaCaT
Protocol: as §4, §5, §6

[4] = system: BAX and BCL-2 genes' expression; test: RT-qPCR of BAX and BCL-2 gene expression in A549 cells; details: mRNA, control = 1
Protocol: In this study, using Reverse transcription (RT)-quantitative real-time PCR (RT-qPCR), we analyzed whether the expression ratio of Bax to Bcl-2 mRNA correlates with apoptosis or the proliferative activity of cancer cells. −
For this purpose, total RNA was isolated using the Total RNA Mini Plus kit (A&A Biotechnology, Gdansk, Poland) following the manufacturer’s instructions. A total of 1 μg of RNA was subjected to RT into complementary DNA (cDNA) using oligo­(dT)­18 and the TranScriba Kit (A&A Biotechnology, Gdansk, Poland). The qRT-PCR experiments were performed with the Sensitive RT HS-PCR Mix (A&A Biotechnology, Gdansk, Poland) on a real-time PCR thermal cycler from Bio-Rad. The TaqMan primers used in this study were obtained from Thermo Fisher Scientific/Invitrogen, specifically Bax (Hs00180269_m1), Bcl-2 (Hs04986394_s1), and GAPDH (4352932E). The relative transcript quantification was carried out using the 2^–ΔΔCt method with GAPDH as the reference gene.

HEK293 cells = test: PrestoBlue HS cell viability assay, HEK293; details: 24 h, dissolved in 0.9% NaCl
Protocol: (§1) Primary screening of the antiproliferative activity of the heteronuclear Ru(II)–Cu(II) complexes was performed by the commonly used MTT assay on four human cancer cell lines: MCF-7 (breast), A549 (lung adenocarcinoma), DU145 (prostate), and PANC-1 (pancreatic). In addition, normal human embryonic kidney (HEK293T) and human keratinocyte (HaCaT) cell lines were used as controls to assess the toxicity of these complexes. […] To verify whether the use of DMSO as a solvent influenced the cytotoxic activity of CDDP, we performed additional experiments (Figure S29) with CDDP (Sigma-Aldrich) dissolved in 0.9% NaCl as per the manufacturer’s recommendation. […]
(§2) Additionally, the viability of A549 and DU145 cell lines, as well as the control cell line HEK293, upon CDDP in 0.9% NaCl, was assessed using the resazurin-based PrestoBlue HS Cell Viability assay, according to the manufacturer’s protocol. […] Results were recorded using fluorescence (excitation 560 nm, emission 590 nm) and absorbance (570 nm), with fluorescence values calculated further using GraphPad Prism software, v. […]
(§3) Figure S29. […] Cells were incubated with varying concentrations of CDDP for 24 h and cell viability was measured by fluorescence intensity (excitation 560 nm, emission 590 nm). […]

DU145 cells [5] = test: PrestoBlue HS cell viability assay, DU145; details: 24 h, dissolved in 0.9% NaCl
Protocol: as §1, §2, §3

A549 cells [6] = test: PrestoBlue HS cell viability assay, A549; details: 24 h, dissolved in 0.9% NaCl
Protocol: as §1, §2, §3

[7] = 72 h (24 h + 48 h regeneration)
[8] = 24 h, Table 2 (bilosome comparison)
[9] = 24 h treatment, DMSO predissolved

Molecule	IC50 (PANC-1 cells; 24 h treatment) [µM]	IC50 (PANC-1 cells; [7]) [µM]	IC50 (HEK293T cells; [8]) [µM]	IC50 (HEK293T cells; 24 h treatment) [µM]	IC50 (HEK293T cells; [7]) [µM]	effect on cell cycle (A549 cells [1])	IC50 (MCF7 cells; 24 h treatment) [µM]	IC50 (DU145 cells [2]; [8]) [µM]	IC50 (DU145 cells [2]; [9]) [µM]	IC50 (DU145 cells [2]; [7]) [µM]	IC50 (A549 cells [3]; [9]) [µM]	IC50 (A549 cells [3]; [7]) [µM]	IC50 (HaCaT cells; [8]) [µM]	IC50 (HaCaT cells; 24 h treatment) [µM]	IC50 (HaCaT cells; [7]) [µM]	Bax/Bcl-2 ratio [4]	further results
[Ru(η^6-p-cymene)Cl2Pcfx-Cu(phen)](NO3) [RuPCpCu]	25.9 ± 0.01	21.7 ± 1.02	644 ± 13.1	644 ± 13.1	796 ± 8.9	induced cell cycle arrest in the S phase	25 ± 0.91	31 ± 1.05	31 ± 1.05	15 ± 0.44	44.4 ± 0.78	12.6 ± 0.83	935 ± 9.3	935 ± 9.3	834 ± 11.9	6.4	–
[Ru(η^6-p-cymene)Cl2Pnfx-Cu(phen)](NO3) [RuPNrCu]	29.5 ± 0.81	23.1 ± 1.09	–	677 ± 12.7	798 ± 14.8	–	24.7 ± 1.95	–	14.5 ± 1.04	14.9 ± 0.23	48.1 ± 0.06	18.8 ± 3.4	–	> 1000	873 ± 18.8	–	–
[Ru(η^6-p-cymene)Cl2Psfx-Cu(phen)] [RuPSfCu]	27.2 ± 0.86	22.1 ± 0.68	–	546 ± 11.2	695 ± 14.2	induced cell cycle arrest in the S phase	17.7 ± 0.93	–	16 ± 0.05	13.5 ± 0.35	41.1 ± 0.7	25.4 ± 1.66	–	> 1000	741 ± 13.2	–	–
[NH2][Pt]([NH2])([Cl])[Cl] [CDDP, cisplatin, reference compound]	95.6 ± 2.61	76.6 ± 1.68	21 ± 1.6	21 ± 1.81	10.3 ± 2.15	–	51.9 ± 4.61	68.3 ± 1.3	68.3 ± 1.35	65.5 ± 3.61	57 ± 1.3	71.7 ± 3.7	43.3 ± 1.1	43.3 ± 1.1	17.3 ± 3.1	4.56	IC50 (HEK293 cells): 87 µM; IC50 (DU145 cells [5]): 101 µM; IC50 (A549 cells [6]): 51.9 µM; IC50 (MCF7 cells; [7]): 17.7 ± 8.6 µM; IC50 (A549 cells [3]; [8]): 57 ± 1.3 µM
[Ru(η^6-p-cymene)Cl2Plfx-Cu(phen)](NO3) [RuPLmCu]	28.3 ± 0.71	22.7 ± 1.03	–	634 ± 9.1	782 ± 14.2	–	26.7 ± 2.82	–	18.9 ± 1.21	12.7 ± 0.92	42.6 ± 0.68	24.3 ± 0.91	–	936 ± 10.1	833 ± 12.2	–	–
